Laboratory results published in US20230271933A1, “HETEROCYCLIC IMMUNOMODULATOR” (Beijing Innocare Pharma Tech Co., Ltd., priority 2020, published 2023).

What was measured:
[1] = system: NCI-H929 human myeloma cells; experiment: Inhibition of the proliferation of NCI-H929 cells (luminescent cell viability, CTG); type: cell-based; settings: 6 days, CellTiter-Glo
Experimental: The effect of the compounds of the present invention on the proliferation of NCI-H929 human myeloma cells was evaluated by using a luminescent cell viability test experiment.
The compound was dissolved and diluted to 5 mM in DMSO, and then serially diluted 4-fold in DMSO to a minimum concentration of 0.31 μM. Each concentration was further diluted 50-fold with RPMI 1640 medium (Thermo Fisher, Cat. No. 72400-047). If the IC50 value of the compound was relatively low, the initial concentration of the compound could be lowered.
NCI-H929 cells (Nanjing Cobioer, Cat. No. CBP60243) were cultured in RPMI 1640 complete medium [containing 10% FBS (GIBCO, Cat. No. 10099-141) and 100 units/mL penicillin-streptomycin (Thermo Fisher, Cat. No. 15140122)]. Cells (15000 cells/mL) were plated in 90 μL of the complete medium in a 96-well plate and cultured overnight, and then 10 μL of the compound solution was added into each well. The cells were cultured in an incubator at 37° C. and 5% CO2 for 6 days. Then the cell culture plate was taken out and balanced to room temperature according to the instruction of the CellTilter-Glo (CTG) kit (Promega, Cat. No. G7572). 50 μL CTG reagent was added for complete lysis, the plate was placed at room temperature for 10 minutes, and the luminescence signal was read with a microplate reader (EnVision, Perkin Elmer). The group containing 0.2% DMSO medium was used as 0% inhibition. The XLfit software was used to plot the compound inhibition curve and calculate the inhibitory IC50 value.

IL-2 = experiment: Stimulation of IL-2 secretion in anti-CD3-stimulated hPBMC (ELISA); type: cell-based, human; settings: anti-CD3 antibody, 72 hours
Experimental: (§1) The immunomodulatory function of the compound of the present invention was evaluated by detecting its effect on the secretion amount of TNFα and IL-2 in cells from the human peripheral blood mononuclear cells (hPBMC) by the enzyme linked immunosorbent assay (ELISA) method.
(§2) The peripheral blood of healthy volunteers was collected by using EDTA anticoagulant tubes, and diluted with phosphate buffered saline (PBS) containing 2% fetal bovine serum (Gibco, Cat. No. 10099-141) in an equal volume ratio. 30 mL of the resulting diluted sample was transferred into a Sepmate-50 centrifuge tube (Stemcell, Cat. No. 86450) to which 15 mL of a density-gradient centrifugation liquid (Sigma, Cat. No. 10771) had been added in advance, and centrifuged at room temperature at 1200×g for 10 minutes. The liquid containing PBMC in the upper layer was transferred to a new 50-mL centrifuge tube, and centrifuged at room temperature at 300×g for 8 minutes. The supernatant was discarded, and the resulting PBMC was resuspended to 5×10^6/mL by using RPMI 1640 medium (Gibco, Cat. No. 72400-047). 80 μL of the resulting suspension was added to each well in a 96-well plate.
(§3) Each concentration was further diluted 50-fold with RPMI 1640 medium. 10 μL of each compound solution was added into the cells in the above 96-well plate. The 96-well plate was placed in an incubator, and the cells were cultured at 37° C. and 5% CO2 for 1 hour. 10 μL of LPS (Sigma, Cat. No. L-2880) with a concentration of 100 ng/mL was added, and the cells were continuously cultured in the incubator at 37° C. and 5% CO2 overnight. Supernatants were collected for the detection of TNFα.
The above-mentioned 96-well plate can also be placed in an incubator, and the cells were cultured at 37° C. and 5% CO2 for 1 hour. 10 μL of anti-CD3 antibody (Thermo Fisher, Cat. No. 14-0037-82) with a concentration of 500 ng/mL was added, and the cells were continuously cultured in the incubator at 37° C. and 5% CO2 for 72 hours. Supernatants were collected for the detection of IL-2.
(§4) TNFα and IL-2 were detected respectively according to each instruction of the ELISA kits (R&D, Cat. No. DY210 and DY202, respectively) to obtain the OD450 values for each well. The group containing 0.2% DMSO medium was used as 0% inhibition or stimulation. The XLfit software was used to plot the compound inhibition or stimulation curve and calculate the corresponding IC50 or EC50.

TNFα = experiment: Inhibition of TNFα secretion in LPS-stimulated hPBMC (ELISA); type: cell-based; settings: Homo sapiens, overnight, read-out: IC50 (nM) for the inhibition of the TNFa secretion
Experimental: as §1, §2, §3, §4

[2] = In vivo pharmacokinetic experiment in rats; settings: male Sprague-Dawley rats, n = 3; for F: PO 5 mpk vs IV 1 mpk; for clearance / Vd / AUC(0-t) / Cmax: rat, plasma; for clearance / Vd: 1 mg/kg, IV 1 mpk; for Vd: read-out: VSS; for AUC(0-t) / Cmax: 5 mg/kg, PO 5 mpk
Experimental: The compound to be tested was dissolved in 5% DMA+20% Solutol+75% Saline vehicle to prepare a 0.5 mg/mL administration solution.
2 mL/kg of the administration solution was administered through the intravenous injection (IV) at a dose of 1 mg/kg to three fed male Sprague-Dawley rats, respectively. Blood samples were collected at 0.083, 0.25, 0.5, 1, 2, 4, 8 and 24 hours after administration. 10 mL/kg of the administration solution was administered by gavage (PO) at a dose of 5 mg/kg to other three fed male Sprague-Dawley rats, respectively. Blood samples were collected at 0.25, 0.5, 1, 2, 4, 8 and 24 hours after administration.
The concentration of the compound to be tested in plasma was obtained with the LC-MS/MS quantitative analysis with an API-4500 mass spectrometer, and the limit of quantitation (LOQ) for the plasma was 1 ng/mL.

SMILES | IC50 ([1]; Homo sapiens, NCI-H929, 144 h) [nM] | EC50 (IL-2; Homo sapiens) [nM] | IC50 (TNFα) [nM] | further results
CC(c1ccc(COc2cccc3c2CN([C@H]2CCC(=O)NC2=O)C3=O)cc1)N1CC2CC1CO2 (single isomer, unassigned) [Compound 18] | 3.1 | 11 | – | –
CC(c1ccc(COc2cccc3c2CN([C@H]2CCC(=O)NC2=O)C3=O)cc1)N1CC2CC1CO2 (single isomer, unassigned) [Compound 19] | – | – | 0.8 | IC50 [1]: 3.8 nM; EC50 (IL-2): 11 nM
CC(c1ccc(COc2cccc3c2CN(C2CCC(=O)NC2=O)C3=O)cc1)N1CCOCC1 (stereo not drawn) [Compound 1, 3-(4-((4-(1-morpholinoethyl)benzyl)oxy)-1-oxoisoindolin-2-yl)piperidine-2,6-dione] | 7.7 | – | – | –
O=C1CCC(N2Cc3c(OCc4ccc(C5(N6CCOCC6)CC5)cc4)cccc3C2=O)C(=O)N1 (stereo not drawn) [Compound 2, 3-(4-((4-(1-morpholinocyclopropyl)benzyl)oxy)-1-oxoisoindolin-2-yl)piperidine-2,6-dione] | 35 | 10 | 7.8 | –
C[C@H](c1ccc(COc2cccc3c2CN(C2CCC(=O)NC2=O)C3=O)cc1)N1CCOCC1 (stereo partly drawn) [Compound 3, 3-(4-((4-((R)-1-morpholinoethyl)benzyl)oxy)-1-oxoisoindolin-2-yl)piperidine-2,6-dione] | 7 | 8 | 1.1 | F [2]: 20%; clearance [2]: 61 mL/min/kg; Vd [2]: 4.2 L/kg; AUC(0-t) [2]: 270 ng·h/mL; Cmax [2]: 105 ng/mL
C[C@@H](c1ccc(COc2cccc3c2CN(C2CCC(=O)NC2=O)C3=O)cc1)N1CCOCC1 (stereo partly drawn) [Compound 4, 3-(4-((4-((S)-1-morpholinoethyl)-benzyl)oxy)-1-oxoisoindolin-2-yl)piperidine-2,6-dione] | 5 | 4.1 | 0.9 | –
CC(C)(c1ccc(COc2cccc3c2CN([C@H]2CCC(=O)NC2=O)C3=O)cc1)N1CCOCC1 [Compound 5, (S)-3-(4-((4-(2-morpholinopropan-2-yl)benzyl)oxy)-1-oxoisoindolin-2-yl)piperidine-2,6-dione] | 7.8 | – | – | F [2]: 4%; clearance [2]: 110 mL/min/kg; Vd [2]: 3.3 L/kg; AUC(0-t) [2]: 8.8 ng·h/mL; Cmax [2]: 1.6 ng/mL
C[C@@H](c1ccc(COc2cccc3c2CN([C@H]2CCC(=O)NC2=O)C3=O)cc1)N1CCN(c2ccc(C#N)cc2F)CC1 [Compound 7, 4-(4-((S)-1-(4-(((2-((S)-2,6-dioxopiperidin-3-yl)-1-oxoisoindolin-4-yl)oxy)methyl)phenyl)-ethyl)piperazin-1-yl)-3-fluorobenzonitrile] | 0.2 | 3.2 | 2.8 | F [2]: 19%; clearance [2]: 13 mL/min/kg; Vd [2]: 2.4 L/kg; AUC(0-t) [2]: 1200 ng·h/mL; Cmax [2]: 121 ng/mL
CC(C)(c1ccc(COc2cccc3c2CN([C@H]2CCC(=O)NC2=O)C3=O)cc1)N1CCN(c2ccc(C#N)cc2F)CC1 [Compound 8, (S)-4-(4-(2-(4-(((2-(2,6-dioxopiperidin-3-yl)-1-oxoisoindolin-4-yl)oxy)methyl)phenyl)-prop-2-yl)piperazin-1-yl)-3-fluorobenzonitrile] | 0.5 | 4 | – | –
N#Cc1ccc(N2CCN(C3(c4ccc(COc5cccc6c5CN([C@H]5CCC(=O)NC5=O)C6=O)cc4)CC3)CC2)c(F)c1 [Compound 9, (S)-4-(4-(1-(4-(((2-(2,6-dioxopiperidin-3-yl)-1-oxoisoindolin-4-yl)oxy)methyl)phenyl)-cyclopropyl)piperazin-1-yl)-3-fluorobenzonitrile] | 1.1 | – | – | –
N#CC(c1ccc(COc2cccc3c2CN([C@H]2CCC(=O)NC2=O)C3=O)cc1)N1CCOCC1 (stereo partly drawn) [Compound 10, 2-(4-(((2-((S)-2,6-dioxopiperidin-3-yl)-1-oxoisoindolin-4-yl)oxy)methyl)phenyl)-2-morpholinoacetonitrile] | 11 | 46 | 2.1 | –
C[C@H](c1ccc(COc2cccc3c2CN([C@H]2CCC(=O)NC2=O)C3=O)cc1)N1CCN(C(=O)C2CC2)CC1 [Compound 11, (S)-3-(4-((4-((R)-1-(4-(cyclopropanecarbonyl)piperazin-1-yl)ethyl)benzyl)oxy)-1-oxoisoindolin-2-yl)piperidine-2,6-dione] | 2.2 | – | – | –
C[C@H](c1ccc(COc2cccc3c2CN([C@H]2CCC(=O)NC2=O)C3=O)cc1)N1CCN(C2CC2)CC1 [Compound 12, (S)-3-(4-((4-((R)-1-(4-cyclopropylpiperazin-1-yl)ethyl)benzyl)oxy)-1-oxoisoindolin-2-yl)piperidine-2,6-dione] | 0.3 | – | – | –
C[C@H](c1ccc(COc2cccc3c2CN([C@H]2CCC(=O)NC2=O)C3=O)cc1)N1CCN(S(C)(=O)=O)CC1 [Compound 13, (S)-3-(4-((4-((R)-1-(4-(methylsulfonyl)piperazin-1-yl)ethyl)benzyl)oxy)-1-oxoisoindolin-2-yl)piperidine-2,6-dione] | 1.2 | – | – | –
C[C@H](c1ccc(COc2cccc3c2CN([C@H]2CCC(=O)NC2=O)C3=O)cc1)N1CCN(C)CC1 [Compound 14, (S)-3-(4-((4-((R)-1-(4-methylpiperazin-1-yl)ethyl)benzyl)oxy)-1-oxoisoindolin-2-yl)piperidine-2,6-dione] | 1.4 | – | – | –
C[C@H](c1ccc(COc2cccc3c2CN([C@H]2CCC(=O)NC2=O)C3=O)cc1)N1CCN(c2ccncn2)CC1 [Compound 15, (S)-3-(1-oxo-4-((4-((R)-1-(4-(pyrimidin-4-yl)piperazin-1-yl)ethyl)benzyl)oxy)isoindolin-2-yl)piperidine-2,6-dione] | 0.4 | 19 | 1.7 | –
C[C@H](c1ccc(COc2cccc3c2CN([C@H]2CCC(=O)NC2=O)C3=O)cc1)N1CCN(c2ccc(F)cc2F)CC1 [Compound 17, (S)-3-(4-((4-((R)-1-(4-(2,4-difluorophenyl)piperazin-1-yl)ethyl)benzyl)oxy)-1-oxoisoindolin-2-yl)piperidine-2,6-dione] | 0.3 | – | 3.7 | –
C[C@H](c1ccc(COc2cccc3c2CN([C@H]2CCC(=O)NC2=O)C3=O)cc1)N1CCN(c2ccncc2F)CC1 [Compound 20, (S)-3-(4-((4-((R)-1-(4-(3-fluoropyridin-4-yl)piperazin-1-yl)ethyl)benzyl)oxy)-1-oxoisoindolin-2-yl)piperidine-2,6-dione] | 0.1 | 1.9 | – | –
